One data set is described as follows: Test 8: Fish Toxicity. It is filed as in vivo. Conditions: carp, water, carps, concentration at which 1/2 of the test fishes were killed, read-out: Fish Toxicity, TLm48. The method, then: A water tank having a width of 60 cm, a length of 30 cm and a height of 40 cm was filled with water, and 10 yearling carps having a body length of about 5 cm were set free in the tank and adapted to the environment in the tank. A test compound was applied so that the concentration in water was 10, 1, or 0.1 ppm. After 48 hours, the numbers of killed and living carps were counted and the influences on the fishes were examined.

A further data set deals with German cockroach. In words: Test 7: Effect on German Cockroach. To be noted: Blattella germanica, male adults, 24 hours, agonized and killed; for mortality at 10 mg/m2: 10 mg/m^2; for mortality at 50 mg/m2: 50 mg/m^2. It is filed as in vivo. The method, then:
The bottom face of a high Petri dish having a diameter of 9 cm and a height of 9 cm was treated with 50 or 10 mg/m^2 of a test compound and the dish was air-dried. In order to prevent the adults from escaping from the dish, the inner wall of the dish was treated with butter. Then, 10 male adults of German cockroach were set free in each dish, and the dish was placed in a thermostat chamber maintained at 25° C. After 24 hours, the number of agonized and killed adults was counted. The test was made on two dishes and the average value was calculated.

In data set [1] the test system is third-instar larvae of diamond back moth. As to the kind of experiment: Test 4: Effect on Diamond Back Moth. The format is in vivo. To be noted: Plutella xylostella, 24 hours. The method, then: (§1) To a mixture of 20 parts of the compound of the present invention and 20 parts of Sorpol SM-200 (registered trademark for the product supplied by Toho Chemical Industrial Co., Ltd.) was added 60 parts of xylol, and the mixture was sufficiently blended. The obtained emulsifiable concentrate was diluted at a predetermined concentration with distilled water, and the obtained dilution was used.
Cabbage leaves were spread in a plastic cup, and 10 third-instar larvae of diamond back moth were set free in the cup.
A chemical dilution having a concentration of 100 or 20 ppm, prepared in the same manner as described in Test 1, was applied from an applicator at a rate of 3 ml per cup.
After scattering of the chemical dilution, the cup was covered, and after 24 hours, the numbers of killed and living larvae were counted and the mortality was calculated. The test was made on three cups and the average value was calculated.

For data set [2], the system named is resistant green rice leafhopper (collected at Nakagawara). In words: Test 3: Effect on Resistant Green Rice Leafhopper. The format is in vivo, Nephotettix cincticeps Uhler. Conditions: Nephotettix cincticeps, 24 h, read-out: Mortality (%) Green Rice Leafhopper Collected at Nakagawara. The method, then: as §1
(§2) Seedlings (having 2 to 3 leaves) of paddy rice were hydroponically cultured in a pot having a diameter of 5 cm. A chemical dilution having a concentration of 100 or 20 ppm, prepared in the same manner as described in Test 1, was applied with a sprayer at a rate of 3 ml per pot. The treated seedlings were air-dried and covered with a metal net cylinder, and female adults of resistant green rice leafhopper (collected at Nakagawara) and sensitive green rice leafhopper (collected at Chigasaki) were set, respectively, free in the pot at a density of 10 adults per pot. After of 24 hours, the numbers of killed and living adults were counted and the mortality was calculated. The test was made on three pots and the average value was calculated.

The next data set has as its system two-spotted spider mite. In words: Test 6: Effect on Two-Spotted Spider mite adults. The format is in vivo. To be noted: Tetranychus urticae; 500 ppm; adults; 24 hours; read-out: Mortality (%). The method, then: as §1
A kidney bean leaf disc perforated with a cork borer (15 mm in diameter) was placed on water-impreganated absorbent cotton (2 cm×2 cm), and 10 adults of two-spotted spider mite were set free. A chemical dilution having a concentration of 500 ppm was applied with an applicator in an amount of 3 ml.
The leaf disc-placed absorbent cotton was placed in a thermostat chamber maintained at 25° C. After 24 hours, the number of killed adults was counted and the mortality was calculated. The test was made on three leaf discs and the average value was calculated.

In data set [3] the test system is Second-instar and fifth-instar larvae of tobacco cutworm. As to the kind of experiment: Test 2: Tobacco Cutworm Larva Dipping Test. The format is in vivo. The method, then: as §1
A dilution having a chemical concentration of 100 or 20 ppm was prepared in the same manner as described in Test 1.
Second-instar and fifth-instar larvae of tobacco cutworm were dipped in the dilution for 5 seconds, and the excessive dilution was removed by a filter paper. Then, the larvae were set free in a plastic cup and an artificial diet was supplied thereto. The cup was allowed to stand still in a thermostat chamber maintained at 25° C. After 24 hours, the numbers of the killed and living larvae were counted and the mortality was calculated. The test was made on three cups and the result was expressed by an average value.

The next data set has as its system green peach aphids. As to the kind of experiment: Test 5: Effect on green peach Aphid. It is filed as in vivo. Conditions: Myzus persicae, 24 hours, mortality class, read-out: Insecticidal Activity. The method, then:
as §1
Seedlings (having 3 to 4 leaves) of an eggplant grown on a pot were inoculated with green peach aphids and the insects were allowed to grow. The number of the insects was counted. A chemical dilution having a concentration of 100 ppm, prepared in the same manner as described in Test 1, was applied with a spray gun at a rate of 10 ml per pot. Then, the pot was placed in a glass green house. After 24 hours, the number of living insects was counted and the mortality was calculated.
The test was made on three pots, and the average value was calculated. In Table 6, mark "A" indicates a mortality higher than 95%, mark "B" indicates a mortality of 80 to 95%, mark "C" indicates a mortality of 50 to 80%, and mark "D" indicates a mortality lower than 50%.

Data set [4] deals with sensitive green rice leafhopper (collected at Chigasaki). As to the kind of experiment: Test 3: Effect on Sensitive Green Rice Leafhopper. The format is in vivo. Conditions: Nephotettix cincticeps, female adults, 24 hours. The method, then:
as §1, §2

Data set [5] can be described thus: Test 9: Toxicity Test (acute oral, mice). To be noted: mouse, in vivo, po. The method, then:
In the fish toxicity test, the test compound was dissolved in acetone to form a 1% solution, and a predetermined amount of the solution was used. In the mouse toxicity test, the test compound of the present invention was dissolved or suspended in corn oil, and a predetermined amount of the solution or suspension was used.
A predetermined amount of a solution or suspension of a test compound in corn oil was orally administered to male mice having a body weight of 19 to 23 g (0.2 ml per 10 g of the body weight). After 7 days, the number of killed mice was counted and the influences on the mice were examined.

[6] abbreviates: 20 ppm, second-instar larvae, 24 hours, read-out: Mortality (%) Second-Instar Larvae.
Where [7] appears, read: 100 ppm, second-instar larvae, 24 hours, read-out: Mortality (%) Second-Instar Larvae.
[8] abbreviates: topical, 24 h, read-out: Mortality (%) Fifth-Instar Larvae.

The structures appear in SMILES notation. Read-outs that look alike come from different tables or passages of the source.

One may read the LD50 as the dose expected to kill half of the subjects tested. High values mean a less toxic substance, low ones a more toxic substance.

For the compound `Cc1cccc(C(C)(C)COCc2ccc(F)c(Oc3ccccc3)c2)c1` [Compound 19, 3-phenoxy-4-fluorobenzyl 2-(3-methylphenyl)-2-methylpropylether], the LC50 at 48 h in the data set “Test 8: Fish Toxicity” was > 1 µg/mL. For the same compound, in the data set on German cockroach, the mortality at 10 mg/m2 stood at 90% and the mortality at 50 mg/m2 turned out to be 100%. In data set [1], this compound had a mortality at 20 ppm of 100% and a mortality at 100 ppm of 100%.

Regarding `CC(C)Oc1ccc(C(C)(C)COCc2ccc(F)c(Oc3ccccc3)c2)cc1` [Compound 41], the mortality at 20 ppm in [2], in data set [1], in data set [3] (setting [6]), in data set [3] (setting [8]) and in [4] was 100% throughout. Also, the mortality at 100 ppm in data set [2] was 100%; in [1] it was 100%; in data set [3] (setting [7]), 100%; in data set [3] (setting [8]), 100%; with green peach aphids it was > 95%; in [4] it was 100%. Besides, in the data set on two-spotted spider mite, the mortality at 500 ppm stood at 90%. The compound further came in with a mortality at 10 mg/m2 with German cockroach of 100%. This compound also registered a mortality at 50 mg/m2 in the data set with German cockroach of 100%.

For `CC(C)(COCc1ccc(F)c(Oc2ccc(F)cc2)c1)c1ccc(Cl)c(Cl)c1` [Compound 24, 3-(4-Fluorophenoxy)-4-fluorobenzyl 2-(3,4-dichlorophenyl)-2-methylpropyl ether], the LC50 at 48 h in “Test 8: Fish Toxicity” is > 1 µg/mL. Besides, in data set [1], the mortality at 20 ppm came to 90% and the mortality at 100 ppm turned out to be 100%.

`COc1ccc(C(C)(C)COCc2ccc(F)c(Oc3ccccc3)c2)cc1` [Compound 16, 3-Phenoxy-4-fluorobenzyl 2-(4-methoxyphenyl)-2-methylpropyl ether]: the LC50 at 48 h in the data set “Test 8: Fish Toxicity” was > 0.5 µg/mL. In the data set with German cockroach, this compound gave a mortality at 10 mg/m2 of 90% and a mortality at 50 mg/m2 of 100%. In data set [1], the mortality at 20 ppm came to 80% and the mortality at 100 ppm came to 100%.

Regarding `CC(C)(COCc1ccc(F)c(Oc2ccccc2)c1)c1ccc(OC2CCCCC2)cc1` [Compound 46, 3-Phenoxy-4-fluorobenzyl 2-(4-cyclohexyloxyphenyl)-2-methylpropyl ether], the LC50 at 48 h in the data set “Test 8: Fish Toxicity” is > 1 µg/mL. Further, the mortality at 20 ppm in data set [2] and in data set [4] was 100% throughout. The mortality at 100 ppm in [2] and in data set [4] was 100% throughout. Moreover, the mortality at 500 ppm in the data set with two-spotted spider mite worked out at 100%.

As to `CCSc1ccc(C(C)(C)COCc2ccc(F)c(Oc3ccccc3)c2)cc1` [Compound 42, 3-Phenoxy-4-fluorobenzyl 2-(4-ethylthiophenyl)-2-methylpropyl ether], the mortality at 500 ppm in the data set on two-spotted spider mite turned out to be 100%. The same compound came in with a mortality at 20 ppm in [1] of 100%. For the same compound, the values for the mortality at 100 ppm (in data set [1]; in the data set on green peach aphids) were 100% and > 95%, respectively.

Turning to `CC(C)(COCc1ccc(F)c(Oc2ccccc2)c1)c1ccc(OC(F)F)cc1` [Compound 21, 3-Phenoxy-4-fluorobenzyl 2-(4-difluoromethoxyphenyl)-2-methylpropyl ether], the mortality at 20 ppm in data set [2], in data set [1], in data set [3] (setting [6]), in data set [3] (setting [8]) and in data set [4] was 100% in each case. Further, the mortality at 100 ppm is 100% in data set [2]; 100% in data set [1]; 100% in data set [3] (setting [7]); 100% in data set [3] (setting [8]); > 95% in the data set with green peach aphids; 100% in data set [4]. In addition, the mortality at 500 ppm with two-spotted spider mite came out at 100%. In addition, the mortality at 10 mg/m2 with German cockroach is 100%. The compound also came in with a mortality at 50 mg/m2 in the data set with German cockroach of 100%.

Consider `CC(C)Sc1ccc(C(C)(C)COCc2ccc(F)c(Oc3ccccc3)c2)cc1` [Compound 54, 3-Phenoxy-4-fluorobenzyl 2-(4-isopropylthiophenyl)-2-methylpropyl ether], for which, in the data set on two-spotted spider mite, the mortality at 500 ppm came out at 100%. Also, in the data set on German cockroach, the mortality at 10 mg/m2 was found to be 100% and the mortality at 50 mg/m2 was found to be 100%. Further, in data set [1], the mortality at 20 ppm amounted to 100% and the mortality at 100 ppm was determined as 100%. Further, in [5], the LD50 at 168 h is > 500 mg/kg. Besides, the mortality at 100 ppm in the data set on green peach aphids is > 95%.

On to `CCOc1ccc(C(C)(C)CSCc2ccc(F)c(Oc3ccccc3)c2)cc1Cl` [Compound 51], for which the mortality at 500 ppm in the data set on two-spotted spider mite worked out at 90%. Moreover, in the data set on German cockroach, the mortality at 10 mg/m2 came to 100% and the mortality at 50 mg/m2 was 100%. In data set [1], this compound had a mortality at 20 ppm of 80% and a mortality at 100 ppm of 100%. Moreover, the LD50 at 168 h in data set [5] was > 500 mg/kg. Besides, the mortality at 100 ppm in the data set on green peach aphids is > 95%.

Regarding `CCOc1ccc(C(C)(C)COCc2ccc(F)c(Oc3ccccc3)c2)cc1` [Compound 36, 3-Phenoxy-4-fluorobenzyl 2-(4-ethoxyphenyl)-2-methylpropyl ether], the mortality at 20 ppm in data set [2], in [1], in [3] (setting [6]), in data set [3] (setting [8]) and in [4] was 100% in each case. Also, the mortality at 100 ppm was 100% in data set [2]; 100% in data set [1]; 100% in [3] (setting [7]); 100% in [3] (setting [8]); > 95% in the data set with green peach aphids; 100% in [4]. In the data set on German cockroach, the mortality at 10 mg/m2 was 100%. For the same compound, the mortality at 50 mg/m2 in the data set with German cockroach was found to be 100%. The LD50 at 168 h in data set [5] was > 500 mg/kg.

Take `CCOc1ccc(C(C)(C)COCc2ccc(F)c(Oc3ccccc3)c2)cc1C` [Compound 67]: the mortality at 20 ppm in data set [2], in data set [1], in data set [3] (setting [6]), in data set [3] (setting [8]) and in [4] was 100% each time. In addition, the mortality at 100 ppm in data set [2] was 100%; in data set [1], 100%; in data set [3] (setting [7]), 100%; in data set [3] (setting [8]), 100%; in the data set on green peach aphids it was > 95%; in data set [4], 100%. In addition, the mortality at 500 ppm in the data set on two-spotted spider mite is 100%. In addition, the mortality at 10 mg/m2 in the data set on German cockroach came out at 100%. Also, the mortality at 50 mg/m2 in the data set on German cockroach turned out to be 100%.

For the origin of these results see patent US4599362A, “2-aryl-ethyl ether derivatives and insecticidal and acaricidal agents containing said derivatives” (priority 1980, dated 1986).
